Experimental data published in patent US9296741B2, “Bromodomain inhibitors” (priority 2012, dated 2016).
Like-named read-outs stand apart in the source and are kept apart here.

Legend:
[1] = Human liver microsome stability assay; assay type: in vitro ADME; settings: human, microsomes, pH 7.4; for half-life at 0.5 μM: both sexes
[2] = Rat liver microsome stability assay; assay type: in vitro ADME; settings: for half-life at 0.5 μM: rat liver microsomes (male Sprague-Dawley), 0.5 μM test compound, 0.25 mg/mL microsomal protein, pH 7.4, 37° C., read-out: Stability in rat liver microsomes (t1/2 in minutes)
[3] = target: human BRD4 second bromodomain (BDII_E352-M457) (Homo sapiens (Human), UniProt O60885); assay: TR-FRET bromodomain binding assay, BRD4 second bromodomain
[4] = system: breast cancer cell line MX-1; assay: MX-1 cell line proliferation assay; assay type: cell-based, human; settings: MX-1 cells, 3-day proliferation, Cell Titer Glo, read-out: Cellular proliferation: EC50
[5] = target: human BRD4 first bromodomain (BDI_K57-E168) (Homo sapiens (Human), UniProt O60885); assay: TR-FRET bromodomain binding assay, BRD4 first bromodomain
[6] = system: LPS induced IL-6 production; assay: LPS (lipopolysaccharide) induced IL-6 production mouse assay; assay type: in vivo; settings: 3 mg/kg oral, 1 h before LPS, serum IL-6 2 h after LPS; for inhibition in vivo at 3 mg/kg: Mus musculus, read-out: Inhibition of LPS induced IL-6 production in Mice, % inhibition at 3 mg/kg
[7] = Mouse liver microsome stability assay; assay type: in vitro ADME; settings: microsomes, pH 7.4; for half-life at 0.5 μM: male, CD1, mouse

Structure (SMILES): CCS(=O)(=O)c1ccc(OC2CCC3(CC2)OCCO3)c(-c2cn(C)c(=O)c3[nH]ccc23)c1 [Example 197, 4-[2-(1,4-dioxaspiro[4.5]dec-8-yloxy)-5-(ethylsulfonyl)phenyl]-6-methyl-1,6-dihydro-7H-pyrrolo[2,3-c]pyridin-7-one]
- half-life at 0.5 μM [1]: 0.267 h
- half-life at 0.5 μM [2]: 0.25 h
- Ki [3]: 0.79 nM
- EC50 ([4]; Homo sapiens, MX1, 72 h): 11.7 nM
- Ki [5]: 1.5 nM
- inhibition in vivo at 3 mg/kg [6]: 59%
- half-life at 0.5 μM [7]: 0.167 h

Structure (SMILES): Cn1cc(-c2cc(S(C)(=O)=O)ccc2OC2CCOC2)c2cc[nH]c2c1=O (stereo not shown) [Example 205, 6-methyl-4-[5-(methylsulfonyl)-2-(tetrahydrofuran-3-yloxy)phenyl]-1,6-dihydro-7H-pyrrolo[2,3-c]pyridin-7-one]
- half-life at 0.5 μM [1]: > 2 h
- half-life at 0.5 μM [2]: 1.35 h
- Ki [3]: 10.2 nM
- EC50 ([4]; Homo sapiens, MX1, 72 h): 39.1 nM
- Ki [5]: 6.2 nM
- inhibition in vivo at 3 mg/kg [6]: 48%
- half-life at 0.5 μM [7]: 1.97 h

Structure (SMILES): Cn1cc(-c2cc(S(N)(=O)=O)cnc2OCC2CC2)c2cc[nH]c2c1=O [Example 207, 6-(cyclopropylmethoxy)-5-(6-methyl-7-oxo-6,7-dihydro-1H-pyrrolo[2,3-c]pyridin-4-yl)pyridine-3-sulfonamide]
- half-life at 0.5 μM [1]: 1.7 h
- half-life at 0.5 μM [2]: 1.3 h
- Ki [3]: 1.8 nM
- EC50 ([4]; Homo sapiens, MX1, 72 h): 25.1 nM
- Ki [5]: 3.1 nM
- inhibition in vivo at 3 mg/kg [6]: 62%
- half-life at 0.5 μM [7]: 1.67 h

Structure (SMILES): CCS(=O)(=O)c1ccc(OC2CCC(C)(O)CC2)c(-c2cn(C)c(=O)c3[nH]ccc23)c1 (stereo not drawn) [Example 212, 4-{5-(ethylsulfonyl)-2-[(trans-4-hydroxy-4-methylcyclohexyl)oxy]phenyl}-6-methyl-1,6-dihydro-7H-pyrrolo[2,3-c]pyridin-7-one]
- Stability in human liver microsomes (t1/2 in minutes) [1]: 1.15 h
- Stability in rat liver microsomes (t1/2 in minutes) ([2]; rat, microsomes, pH 7.4): 1.12 h
- Ki [3]: 1.3 nM
- EC50 [4]: 7.3 nM
- Ki [5]: 1.8 nM
- Inhibition of LPS induced IL-6 production in Mice, % inhibition at 3 mg/kg [6]: 47%
- Stability in mouse liver microsomes (t1/2 in minutes) ([7]; mouse): 0.883 h

Structure (SMILES): Cn1cc(-c2cc(S(C)(=O)=O)ccc2OCC2(C)CC2)c2cc[nH]c2c1=O [Example 231, 6-methyl-4-{2-[(1-methylcyclopropyl)methoxy]-5-(methylsulfonyl)phenyl}-1,6-dihydro-7H-pyrrolo[2,3-c]pyridin-7-one]
- half-life at 0.5 μM [1]: 0.55 h
- half-life at 0.5 μM [2]: > 2 h
- Ki [3]: 6.7 nM
- EC50 ([4]; Homo sapiens, MX1, 72 h): 6.3 nM
- Ki [5]: 3.7 nM
- inhibition in vivo at 3 mg/kg [6]: 51%
- half-life at 0.5 μM [7]: 1.2 h

Structure (SMILES): Cn1cc(-c2cc(S(N)(=O)=O)ccc2NCC2CC2)c2cc[nH]c2c1=O [Example 238, 4-[(cyclopropylmethyl)amino]-3-(6-methyl-7-oxo-6,7-dihydro-1H-pyrrolo[2,3-c]pyridin-4-yl)benzenesulfonamide]
- half-life at 0.5 μM [1]: 1.72 h
- half-life at 0.5 μM [2]: > 2 h
- Ki [3]: 0.78 nM
- EC50 ([4]; Homo sapiens, MX1, 72 h): 3.3 nM
- Ki [5]: 1.1 nM
- inhibition in vivo at 3 mg/kg [6]: 69%
- half-life at 0.5 μM [7]: 1.05 h

Structure (SMILES): CCS(=O)(=O)c1ccc(OCC2CC2(F)F)c(-c2cn(C)c(=O)c3[nH]ccc23)c1 (stereo not shown) [Example 240, 4-{2-[(2,2-difluorocyclopropyl)methoxy]-5-(ethylsulfonyl)phenyl}-6-methyl-1,6-dihydro-7H-pyrrolo[2,3-c]pyridin-7-one]
- half-life at 0.5 μM [1]: > 2 h
- half-life at 0.5 μM [2]: > 2 h
- Ki [3]: 2.8 nM
- EC50 ([4]; Homo sapiens, MX1, 72 h): 11.5 nM
- Ki [5]: 2 nM
- inhibition in vivo at 3 mg/kg [6]: 62%
- half-life at 0.5 μM [7]: 0.783 h

Structure (SMILES): Cn1cc(-c2cc(S(N)(=O)=O)cnc2Oc2ccc(F)cc2F)c2cc[nH]c2c1=O [Example 242, 6-(2,4-difluorophenoxy)-5-(6-methyl-7-oxo-6,7-dihydro-1H-pyrrolo[2,3-c]pyridin-4-yl)pyridine-3-sulfonamide]
- half-life at 0.5 μM [1]: > 2 h
- half-life at 0.5 μM [2]: 1.43 h
- Ki [3]: 5.8 nM
- EC50 ([4]; Homo sapiens, MX1, 72 h): 289 nM
- Ki [5]: 36.5 nM
- inhibition in vivo at 3 mg/kg [6]: 46%
- half-life at 0.5 μM [7]: > 2 h

Structure (SMILES): CN(C)S(=O)(=O)c1cnc(NCC2CC2)c(-c2cn(C)c(=O)c3[nH]ccc23)c1 [Example 245, 6-[(cyclopropylmethyl)amino]-N,N-dimethyl-5-(6-methyl-7-oxo-6,7-dihydro-1H-pyrrolo[2,3-c]pyridin-4-yl)pyridine-3-sulfonamide]
- half-life at 0.5 μM [1]: 0.533 h
- half-life at 0.5 μM [2]: 0.4 h
- Ki [3]: 3.7 nM
- EC50 ([4]; Homo sapiens, MX1, 72 h): 26.9 nM
- Ki [5]: 2.5 nM
- inhibition in vivo at 3 mg/kg [6]: 71%
- half-life at 0.5 μM [7]: 0.2 h

Structure (SMILES): CCS(=O)(=O)c1ccc(O[C@H]2CC[C@@H](OC)CC2)c(-c2cn(C)c(=O)c3[nH]ccc23)c1 [Example 248, 4-{5-(ethylsulfonyl)-2-[(cis-4-methoxycyclohexyl)oxy]phenyl}-6-methyl-1,6-dihydro-7H-pyrrolo[2,3-c]pyridin-7-one]
- half-life at 0.5 μM [1]: 0.217 h
- half-life at 0.5 μM [2]: 0.267 h
- Ki [3]: 1.3 nM
- EC50 ([4]; Homo sapiens, MX1, 72 h): 26.4 nM
- Ki [5]: 1.9 nM
- inhibition in vivo at 3 mg/kg [6]: 82%
- half-life at 0.5 μM [7]: 0.0833 h

Structure (SMILES): CCS(=O)(=O)c1ccc(O[C@H]2CC[C@H](OC)CC2)c(-c2cn(C)c(=O)c3[nH]ccc23)c1 [Example 260, 4-{5-(ethylsulfonyl)-2-[(trans-4-methoxycyclohexyl)oxy]phenyl}-6-methyl-1,6-dihydro-7H-pyrrolo[2,3-c]pyridin-7-one]
- half-life at 0.5 μM [1]: 0.567 h
- half-life at 0.5 μM [2]: 0.967 h
- Ki [3]: 1.2 nM
- EC50 ([4]; Homo sapiens, MX1, 72 h): 6.3 nM
- Ki [5]: 1 nM
- inhibition in vivo at 3 mg/kg [6]: 66%
- half-life at 0.5 μM [7]: 0.483 h

Structure (SMILES): CCS(=O)(=O)c1ccc(NC2CC2)c(-c2cn(C)c(=O)c3[nH]ccc23)c1 [Example 267, 4-[2-(cyclopropylamino)-5-(ethylsulfonyl)phenyl]-6-methyl-1,6-dihydro-7H-pyrrolo[2,3-c]pyridin-7-one]
- half-life at 0.5 μM [1]: 1.58 h
- half-life at 0.5 μM [2]: 0.3 h
- Ki [3]: 4.2 nM
- EC50 ([4]; Homo sapiens, MX1, 72 h): 43.6 nM
- Ki [5]: 4.4 nM
- inhibition in vivo at 3 mg/kg [6]: 74%
- half-life at 0.5 μM [7]: > 2 h

Structure (SMILES): CN(C)S(=O)(=O)c1ccc(OCC2CC2)c(-c2cn(C)c(=O)c3[nH]ccc23)c1 [Example 273, 4-(cyclopropylmethoxy)-N,N-dimethyl-3-(6-methyl-7-oxo-6,7-dihydro-1H-pyrrolo[2,3-c]pyridin-4-yl)benzenesulfonamide]
- half-life at 0.5 μM [1]: 0.15 h
- half-life at 0.5 μM [2]: 0.2 h
- Ki [3]: 1.3 nM
- EC50 ([4]; Homo sapiens, MX1, 72 h): 9 nM
- Ki [5]: 1.2 nM
- inhibition in vivo at 3 mg/kg [6]: 47%
- half-life at 0.5 μM [7]: 0.133 h

Structure (SMILES): Cn1cc(-c2cc(S(C)(=O)=O)ccc2Oc2ccc(F)cc2F)c2cc(CO)[nH]c2c1=O [Example 276, 4-[2-(2,4-difluorophenoxy)-5-(methylsulfonyl)phenyl]-2-(hydroxymethyl)-6-methyl-1,6-dihydro-7H-pyrrolo[2,3-c]pyridin-7-one]
- half-life at 0.5 μM [1]: > 2 h
- half-life at 0.5 μM [2]: 1.37 h
- Ki [3]: 17.1 nM
- EC50 ([4]; Homo sapiens, MX1, 72 h): 149 nM
- Ki [5]: 11.4 nM
- inhibition in vivo at 3 mg/kg [6]: 25%
- half-life at 0.5 μM [7]: 1.18 h

Structure (SMILES): CC(O)c1cc2c(-c3cc(S(C)(=O)=O)ccc3Oc3ccc(F)cc3F)cn(C)c(=O)c2[nH]1 (stereo not shown) [Example 278, 4-[2-(2,4-difluorophenoxy)-5-(methylsulfonyl)phenyl]-2-(1-hydroxyethyl)-6-methyl-1,6-dihydro-7H-pyrrolo[2,3-c]pyridin-7-one]
- half-life at 0.5 μM [1]: > 2 h
- half-life at 0.5 μM [2]: > 2 h
- Ki [3]: 11.2 nM
- EC50 ([4]; Homo sapiens, MX1, 72 h): 135 nM
- Ki [5]: 12.1 nM
- inhibition in vivo at 3 mg/kg [6]: 51%
- half-life at 0.5 μM [7]: > 2 h

Structure (SMILES): Cn1cc(-c2cc(S(=O)(=O)N3CCOCC3)ccc2OCC2CC2)c2cc[nH]c2c1=O [Example 286, 4-[2-(cyclopropylmethoxy)-5-(morpholin-4-ylsulfonyl)phenyl]-6-methyl-1,6-dihydro-7H-pyrrolo[2,3-c]pyridin-7-one]
- half-life at 0.5 μM [1]: 0.167 h
- half-life at 0.5 μM [2]: 0.317 h
- Ki [3]: 5.4 nM
- EC50 ([4]; Homo sapiens, MX1, 72 h): 74.6 nM
- Ki [5]: 12.1 nM
- inhibition in vivo at 3 mg/kg [6]: 57%
- half-life at 0.5 μM [7]: 0.183 h

Structure (SMILES): Cn1cc(-c2cc(S(C)(=O)=O)cnc2Oc2ccc(F)cc2F)c2cc[nH]c2c1=O [Example 288, 4-[2-(2,4-difluorophenoxy)-5-(methylsulfonyl)pyridin-3-yl]-6-methyl-1,6-dihydro-7H-pyrrolo[2,3-c]pyridin-7-one]
- half-life at 0.5 μM [1]: 1.42 h
- half-life at 0.5 μM [2]: > 2 h
- Ki [3]: 53.9 nM
- EC50 ([4]; Homo sapiens, MX1, 72 h): 173 nM
- Ki [5]: 71.9 nM
- inhibition in vivo at 3 mg/kg [6]: 60%
- half-life at 0.5 μM [7]: > 2 h

Structure (SMILES): Cn1cc(-c2cc(S(=O)(=O)C3CC3)ccc2Oc2ccc(F)cc2F)c2cc[nH]c2c1=O [Example 290, 4-[5-(cyclopropylsulfonyl)-2-(2,4-difluorophenoxy)phenyl]-6-methyl-1,6-dihydro-7H-pyrrolo[2,3-c]pyridin-7-one]
- half-life at 0.5 μM [1]: 1.22 h
- half-life at 0.5 μM [2]: 0.8 h
- Ki [3]: 1.9 nM
- EC50 ([4]; Homo sapiens, MX1, 72 h): 36.2 nM
- Ki [5]: 5 nM
- inhibition in vivo at 3 mg/kg [6]: 64%
- half-life at 0.5 μM [7]: 0.867 h

Structure (SMILES): CCS(=O)(=O)c1cnc(Oc2ccc(F)cc2F)c(-c2cn(C)c(=O)c3[nH]ccc23)c1 [Example 294, 4-[2-(2,4-difluorophenoxy)-5-(ethylsulfonyl)pyridin-3-yl]-6-methyl-1,6-dihydro-7H-pyrrolo[2,3-c]pyridin-7-one]
- half-life at 0.5 μM [1]: > 2 h
- half-life at 0.5 μM [2]: > 2 h
- Ki [3]: 21.7 nM
- EC50 ([4]; Homo sapiens, MX1, 72 h): 332 nM
- Ki [5]: 47.9 nM
- inhibition in vivo at 3 mg/kg [6]: 79%
- half-life at 0.5 μM [7]: > 2 h
